Laboratory results reported in PMC3216923 (2011).

Legend:
Assay in all cases: isothermal titration calorimetry
[1] = tested on: TelM (DNA, single strand) TTAGGGTTAGAGTTAGGGTTAGGG; conditions: 100 mM NaCl; 10 mM Na phosphate, pH 6.5, 25°C; site 1 of 2
[2] = tested on: dsDNA (DNA, duplex) TTAGGGTTAGGGTTAGGGTTAGGG/CCCTAACCCTAACCCTAACCCTAA; conditions: 100 mM NaCl or 100 mM KCl (not specified), Na+ 10 mM (Na phosphate), pH 6.5, 25°C
[3] = tested on: TelQ (DNA, G4) TTAGGGTTAGGGTTAGGGTTAGGG; conditions: 10 mM Na phosphate, pH 6.5, 25°C

K ass [1]: 200±70 × 10^6 M^-1 | K ass [2]: 2.2±0.1 × 10^6 M^-1 | K ass ([3]; 100 mM KCl, text prints 1.0±0.15 × 10^7): 10.6±1.7 × 10^6 M^-1 | K ass ([3]; 100 mM NaCl): 0.9±0.1 × 10^6 M^-1
Structure (SMILES): CC(=N)NCCNc1c2c(c(NCCNC(C)=N)c3sccc13)C(=O)c1ccccc1C2=O
